Structures can show the parent of a compound that is named as a salt. Where two headings read alike, the source gives them in different places. Each block holds one compound with its values, some of them ahead of it.
Experiments:
Format in all cases: biochemical
[1] = molecular target: maltase (from porcine intestinal mucosa); test: inhibitory activity against maltase prepared from porcine intestinal mucosa (substrate maltose)
Method: (§1) The inhibitory activities of the compounds of this invention against α-glucosidase (yeast, type I, produced by Sigma Chemical Co. the United States of America) as well as maltase and saccharase prepared from porcine intestinal mucosa (prepared in accordance with the procedure as described by B. Borgstro m and A. Dahlgvist in Acta Chem. Scand.; 12, 1997-2006, (1958)), when maltose and sucrose are used as a substrate, are determined by adding to 0.25 ml of a solution of an enzyme prepared by diluting suitably with 0.02M phosphate buffer (pH 6.8) 0.5 ml of a solution of an inhibitory substance to be tested in the same buffer and 0.25 ml of 0.05M maltose or 0.05M sucrose as the substrate in the same buffer, allowing the mixture to react at 37° C. for 10 minutes, then adding 3 ml of Glucose B-Test Reagent (a glucose oxidase reagent for measurement of glucose, produced by Wako Pure Chemical Co., Japan), further warming the mixture at 37° C. for 20 minutes, and measuring the absorbance of the reaction solution at 505 nm. […]

[2] = molecular target: T1, saccharase (from porcine intestinal mucosa) (Sus scrofa, UniProt P56729); test: inhibitory activity against saccharase prepared from porcine intestinal mucosa (substrate sucrose)
T1 construct: maltase and saccharase prepared from porcine intestinal mucosa; from tissue; host or cells: porcine intestinal mucosa
T1 sequence (P56729 with tags, fused parts or gaps limits assumed): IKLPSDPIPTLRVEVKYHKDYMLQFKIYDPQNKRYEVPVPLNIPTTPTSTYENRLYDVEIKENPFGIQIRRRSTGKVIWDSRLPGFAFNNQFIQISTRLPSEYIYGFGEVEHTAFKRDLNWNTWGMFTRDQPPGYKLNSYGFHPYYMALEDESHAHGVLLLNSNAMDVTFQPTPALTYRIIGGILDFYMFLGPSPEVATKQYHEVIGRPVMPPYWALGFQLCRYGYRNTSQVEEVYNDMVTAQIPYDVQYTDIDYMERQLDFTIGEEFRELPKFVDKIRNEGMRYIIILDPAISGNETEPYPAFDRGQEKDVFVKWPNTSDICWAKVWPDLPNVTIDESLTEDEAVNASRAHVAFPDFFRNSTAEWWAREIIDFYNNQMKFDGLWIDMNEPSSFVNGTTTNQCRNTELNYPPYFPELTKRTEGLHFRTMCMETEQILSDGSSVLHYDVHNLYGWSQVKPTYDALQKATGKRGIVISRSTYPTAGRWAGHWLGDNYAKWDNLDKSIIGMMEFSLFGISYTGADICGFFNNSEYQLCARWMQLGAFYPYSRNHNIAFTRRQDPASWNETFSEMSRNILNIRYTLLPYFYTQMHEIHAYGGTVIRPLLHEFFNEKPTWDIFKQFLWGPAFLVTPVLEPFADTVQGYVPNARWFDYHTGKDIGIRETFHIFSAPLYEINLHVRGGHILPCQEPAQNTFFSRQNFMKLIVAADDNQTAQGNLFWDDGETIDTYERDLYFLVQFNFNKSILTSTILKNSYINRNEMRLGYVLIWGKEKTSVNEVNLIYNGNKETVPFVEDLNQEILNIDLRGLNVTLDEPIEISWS
T1 sequence (P56729 with tags, fused parts or gaps partner limits assumed): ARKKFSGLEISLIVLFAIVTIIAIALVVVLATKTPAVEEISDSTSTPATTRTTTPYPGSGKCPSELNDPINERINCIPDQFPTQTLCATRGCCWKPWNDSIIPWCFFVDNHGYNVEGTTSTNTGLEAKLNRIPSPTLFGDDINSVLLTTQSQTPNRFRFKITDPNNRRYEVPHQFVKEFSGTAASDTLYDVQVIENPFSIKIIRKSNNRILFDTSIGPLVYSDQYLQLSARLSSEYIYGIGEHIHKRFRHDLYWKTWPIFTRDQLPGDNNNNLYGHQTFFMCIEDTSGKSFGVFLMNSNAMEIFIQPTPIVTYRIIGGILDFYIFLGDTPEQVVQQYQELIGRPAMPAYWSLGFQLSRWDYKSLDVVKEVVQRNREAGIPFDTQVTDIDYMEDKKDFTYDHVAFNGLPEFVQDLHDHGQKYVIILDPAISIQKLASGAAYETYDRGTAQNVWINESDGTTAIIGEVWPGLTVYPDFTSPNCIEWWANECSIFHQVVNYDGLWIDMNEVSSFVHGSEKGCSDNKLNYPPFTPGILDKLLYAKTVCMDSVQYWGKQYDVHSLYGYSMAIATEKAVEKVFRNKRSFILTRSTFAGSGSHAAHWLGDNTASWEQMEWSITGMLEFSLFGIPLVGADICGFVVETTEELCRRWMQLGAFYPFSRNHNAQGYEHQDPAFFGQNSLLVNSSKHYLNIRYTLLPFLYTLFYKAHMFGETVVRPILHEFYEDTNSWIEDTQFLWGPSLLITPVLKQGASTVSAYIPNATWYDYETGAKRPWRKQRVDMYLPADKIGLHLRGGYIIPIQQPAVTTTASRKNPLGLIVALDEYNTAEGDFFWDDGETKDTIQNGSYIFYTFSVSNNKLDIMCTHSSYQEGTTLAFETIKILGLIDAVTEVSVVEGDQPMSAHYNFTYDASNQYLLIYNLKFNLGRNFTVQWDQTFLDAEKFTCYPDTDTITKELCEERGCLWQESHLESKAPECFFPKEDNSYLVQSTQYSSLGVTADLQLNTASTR
Method: as §1

[3] = tested on: α-glucoside hydrolase; test: α-glucosidase inhibitory activity (general statement); conditions: statement in words
[4] = read-out: The concentrations of 50% inhibition against maltase (substrate:maltose) IC50, Table 1, porcine intestinal mucosa maltase, substrate maltose, pH 6.8, 37° C.
[5] = IC50 (saccharase), given in the examples
[6] = Table 2, porcine intestinal mucosa saccharase, substrate sucrose, pH 6.8, 37° C.
[7] = given in the examples, read-out: IC50 (saccharase)
[8] = given in the examples, read-out: IC50 (maltase)

SMILES: OCC(CO)N[C@H]1C[C@](O)(CO)[C@@H](O)[C@H](O)[C@H]1O [drawing 7]
- IC50 [1, 4]: 15 nM

SMILES: OC[C@@]1(O)C[C@H](NC2CCCC2O)[C@H](O)[C@@H](O)[C@@H]1O (single isomer, unassigned) [Example 38 Isomer showing [α]D^24 +40.4°, N-(2-hydroxycyclopentyl)valiolamine]
- IC50 [2, 5]: 130 nM

SMILES: N[C@H]1C[C@](O)(CO)[C@@H](O)[C@H](O)[C@H]1O [valiolamine, 1L(1S)-(1(OH),2,4,5/1,3)-5-amino-1-hydroxymethyl-1,2,3,4-cyclohexanetetrol]
- α-glucosidase inhibitory activity [3]: α-glucosidase inhibitory activity

SMILES: OC[C@H]1C[C@H](NC2CCCC2O)[C@H](O)[C@@H](O)[C@@H]1O (some centres unmarked) [Example 21, N-(2-hydroxycyclopentyl)validamine]
- IC50 [2, 5]: 130 nM

SMILES: OC[C@@]1(O)C[C@H](NCCc2ccccc2)[C@H](O)[C@@H](O)[C@@H]1O [drawing 26]
- IC50 [2, 6]: 2.3 nM

SMILES: OCC(N[C@H]1C[C@H](CO)[C@@H](O)[C@H](O)[C@H]1O)[C@@H](O)[C@H](O)[C@@H](O)CO (stereo partly drawn) [Example 16, N-(L-xylo-2,3,4,5-tetrahydroxy-1-hydroxymethylpentyl)validamine]
- IC50 [2, 7]: 79 nM

SMILES: OC[C@@]1(O)C[C@H](NCC2CCCCC2)[C@H](O)[C@@H](O)[C@@H]1O
- IC50 [2, 6]: 9.3 nM

SMILES: CC(C)=CCC/C(C)=C/CN[C@H]1C[C@H](CO)[C@@H](O)[C@H](O)[C@H]1O [Example 12, N-geranylvalidamine sulfate]
- IC50 [2, 7]: 790 nM

SMILES: OC[C@@]1(O)C[C@H](NCCc2ccccc2)[C@H](O)[C@@H](O)[C@@H]1O [drawing 13]
- IC50 [1, 4]: 100 nM

SMILES: CC(C)(C)c1cc(CN[C@H]2C[C@H](CO)[C@@H](O)[C@H](O)[C@H]2O)cc(C(C)(C)C)c1O
- IC50 [1, 4]: 36000 nM

SMILES: OC[C@H]1C[C@H](NC2CCCCC2O)[C@H](O)[C@@H](O)[C@@H]1O (some centres unmarked) [Example 20, N-(2-hydroxycyclohexyl)validamine]
- IC50 [2, 5]: 96 nM

SMILES: OCC(N[C@H]1C[C@H](CO)[C@@H](O)[C@H](O)[C@H]1O)[C@@H](O)[C@H](O)[C@H](O)CO (stereo partly drawn) [Example 19, N-(D-arabino-2,3,4,5-tetrahydroxy-1-hydroxymethylpentyl)validamine]
- IC50 [1, 8]: 590 nM

SMILES: N[C@H]1C[C@H](CO)[C@@H](O)[C@H](O)[C@H]1O [validamine]
- α-glucosidase inhibitory activity [3]: possesses a highly valuable action of suppressing the function of α-glucoside hydrolase

SMILES: CC(C)(C)c1cc(CN[C@H]2C[C@](O)(CO)[C@@H](O)[C@H](O)[C@H]2O)cc(C(C)(C)C)c1O [Example 40, N-(3,5,-di-tert-butyl-4-hydroxybenzyl)valiolamine]
- IC50 [1, 8]: 43 nM
- IC50 [2, 7]: 6.8 nM

SMILES: OCC(CO)N[C@H]1C[C@](O)(CO)[C@@H](O)[C@H](O)[C@H]1O [drawing 17]
- IC50 [2]: 4.6 nM

SMILES: OC[C@@]1(O)C[C@H](NC2CCCC2)[C@H](O)[C@@H](O)[C@@H]1O [Example 39, N-cyclopentylvaliolamine]
- IC50 [2, 5]: 25 nM

SMILES: CC(C)=CCC/C(C)=C/CN[C@H]1C[C@](O)(CO)[C@@H](O)[C@H](O)[C@H]1O
- IC50 [2, 6]: 11 nM

SMILES: OC[C@@]1(O)C[C@H](NC2CCCCC2)[C@H](O)[C@@H](O)[C@@H]1O [Example 37, N-cyclohexylvaliolamine]
- IC50 [1, 8]: 410 nM
- IC50 [2, 7]: 15 nM

SMILES: OC[C@@]1(O)C[C@H](NC2CCCC2O)[C@H](O)[C@@H](O)[C@@H]1O (single isomer, unassigned) [Example 38 Isomer showing [α]D^24-16.2°, N-(2-hydroxycyclopentyl)valiolamine]
- IC50 [1, 8]: 58 nM
- IC50 [2, 5]: 24 nM

Results, then the compound that gave them:

- IC50 [1, 4]: 33 nM
SMILES: OC[C@@]1(O)C[C@H](NCC(O)COc2ccccc2)[C@H](O)[C@@H](O)[C@@H]1O (some centres unmarked) [drawing 12]

- IC50 [2, 6]: 19 nM
SMILES: OC[C@@]1(O)C[C@H](NCC(O)c2ccccc2)[C@H](O)[C@@H](O)[C@@H]1O (single isomer, unassigned) [drawing 18]

- IC50 [2, 6]: 1900 nM
SMILES: OC[C@H]1C[C@H](NCCCc2ccccc2)[C@H](O)[C@@H](O)[C@@H]1O [drawing 24]

- IC50 [1, 8]: 3400 nM
SMILES: OC[C@H]1C[C@H](NCC(O)COc2ccccc2)[C@H](O)[C@@H](O)[C@@H]1O (some centres unmarked) [Example 18, N-(2-hydroxy-3-phenoxypropyl)validamine]

- IC50 [2, 6]: 15 nM
SMILES: OC[C@@]1(O)C[C@H](NCc2ccc(Br)cc2)[C@H](O)[C@@H](O)[C@@H]1O

- IC50 [1, 8]: 63 nM
- IC50 [2, 7]: 9.9 nM
SMILES: COc1ccccc1C(O)CN[C@H]1C[C@](O)(CO)[C@@H](O)[C@H](O)[C@H]1O (stereo partly drawn) [Example 41, N-(β-hydroxy-2-methoxyphenetyl)valiolamine]

- IC50 [1, 8]: 4500 nM
SMILES: OCC(N[C@H]1C[C@H](CO)[C@@H](O)[C@H](O)[C@H]1O)c1ccccc1 (stereo partly drawn) [N-[α-(hydroxymethyl)benzyl]validamine]

- IC50 [2, 6]: 260 nM
SMILES: OCC(N[C@H]1C[C@H](CO)[C@@H](O)[C@H](O)[C@H]1O)C(O)c1ccccc1 (some centres unmarked) [drawing 33]

- IC50 [1, 4]: 50 nM
SMILES: OC[C@@]1(O)C[C@H](NCC(O)c2ccccc2)[C@H](O)[C@@H](O)[C@@H]1O (single isomer, unassigned) [drawing 8]

- IC50 [2, 6]: 8.6 nM
SMILES: OC[C@@]1(O)C[C@H](NCC(O)COc2ccccc2)[C@H](O)[C@@H](O)[C@@H]1O (some centres unmarked) [drawing 20]

- IC50 [2, 6]: 36 nM
SMILES: OCC(O)C(O)C(O)C(O)CN[C@H]1C[C@](O)(CO)[C@@H](O)[C@H](O)[C@H]1O (some centres unmarked)

- IC50 [1, 4]: 92000 nM
SMILES: OC[C@H]1C[C@H](NCCCc2ccccc2)[C@H](O)[C@@H](O)[C@@H]1O [drawing 14]

- IC50 [2, 6]: 2.9 nM
SMILES: OC[C@@]1(O)C[C@H](NCC(O)c2ccccc2)[C@H](O)[C@@H](O)[C@@H]1O (single isomer, unassigned) [drawing 19]

- IC50 [2, 6]: 22 nM
SMILES: OC[C@H]1C[C@H](NCC(O)c2ccccc2)[C@H](O)[C@@H](O)[C@@H]1O (some centres unmarked) [drawing 32]

- IC50 [1, 4]: 5.8 nM
SMILES: OC[C@@]1(O)C[C@H](NCC(O)c2ccccc2)[C@H](O)[C@@H](O)[C@@H]1O (single isomer, unassigned) [drawing 9]

- IC50 [1, 4]: 1700 nM
SMILES: OC[C@H]1C[C@H](NCC(O)c2ccccc2)[C@H](O)[C@@H](O)[C@@H]1O (some centres unmarked) [drawing 10]

- IC50 [1, 4]: 32000 nM
SMILES: OCC(N[C@H]1C[C@H](CO)[C@@H](O)[C@H](O)[C@H]1O)C(O)c1ccccc1 (some centres unmarked) [drawing 11]

- IC50 [2, 6]: 15 nM
SMILES: OCC1(O)CC(NCc2ccco2)C(O)C(O)C1O (centres unmarked)
